Assay results reported in patent publication US20070003586A1, “Insecticidal coating for use on cellulosic substrates” (priority 2005, published 2007).

Experiment: LD50 (lethal dose 50%) value
Details: rat, in vivo; insecticide as such; subjects typically rats
Description: According to one aspect of the present invention, an insecticidal coating composition for use on cellulosic substrates is provided comprising a polyvinyl acetate emulsion; a vinyl acetate ethylene copolymer emulsion; and an insecticide having an LD50 value of between about 14,500 to about 15,500 mg/kg. By “LD50” value, it is meant “lethal dose 50%” value, which indicates the quantity of a substance, which, when administered to a population of subjects (typically rats), will cause 50% of the subjects to perish.

CC1(C)[C@H](C(=O)O[C@H](C#N)c2cccc(Oc3ccccc3)c2)[C@@H]1C=C(Br)Br [deltamethrin, (S)-cyano-3-phenoxybenzyl(1R)-cis-3-(2,2-dibromovinyl)-2,2-dimethylcyclopropane carboxylate]
LD50: ~15000 mg/kg
